Like-named read-outs stand apart in the source and are kept apart here.
Experiments:
Huh-7 cells = assay: In vitro antiproliferative MTT assay, Huh-7 cells; assay type: cell-based, human; settings: Homo sapiens, 72 h, mean ± SD (n = 3)
Protocol: (§1) HepG2, Sk-Hep-1, Huh-7, Hep3B and L-02 cells were purchased from Nanjing Key Gen Biotech Co. Ltd. (Nanjing, China). The cytotoxicity of test compounds was determined using an MTT assay. Briefly, the cell lines were incubated at 37 °C in a humidified 5% CO2 incubator for 24 h in 96-microwell plates. After medium removal, 100 μL of culture medium with 0.1% DMSO containing test compounds at different concentrations was added to each well and incubated at 37 °C for another 72 h. The MTT (5 mg/mL in PBS) was added and incubated for another 4 h, the optical density was detected with a microplate reader at 490 nm. The IC50 values were calculated according to the dose-dependent curves. All the experiments were repeated in at least three independent experiments.

normal hepatocytes L-02 = assay: MTT cytotoxicity assay, normal hepatocytes L-02; assay type: cell-based; settings: Hepatocyte; normal hepatocytes L-02, MTT, 72 h, mean ± SD (n = 3)
Protocol: as §1

[1] = test system: H22 liver cancer xenograft; assay: In vivo anti-HCC assay, H22 liver cancer xenograft mouse model; parameters: species or system mice; settings: 30 mg/kg, intravenous, once a day for 21 days, H22 mice
Protocol: Five-week-old male Institute of Cancer Research (ICR) mice were purchased from Shanghai SLAC Laboratory Animals Co. Ltd. Briefly, a total of 1 × 10^6 H22 cells were subcutaneously inoculated into the right flank of ICR mice according to protocols of tumour transplant research, to initiate tumour growth. After incubation for one day, mice were weighed and randomly divided into 5 groups of 8 animals. The groups were administered berberine (30 mg/kg) and 6k (15 or 30 mg/kg) in a vehicle of 10% DMF/2% Tween 80/88% saline, respectively. Vehicle and cyclophosphamide (20 mg/kg) were employed as negative and positive controls, respectively. Treatments were performed by intravenous injection once per day for a total of 21 consecutive days. Body weights and tumour volumes were measured every 2 days. The mice were sacrificed after the treatments, and the tumours were excised and weighed. The tumour volume and inhibition rate (w/w) were calculated as follows: tumour volume = L × W^2/2, where L is the length and W is the width; tumour inhibitory ratio (%) = (1-average tumour weight of treated group/average tumour weight of control group) × 100%. All procedures were performed following institutional approval in accordance with the NIH Guide for the Care and Use of Laboratory Animals.

[2] = test system: human hepatoma cells including HepG2, Sk-Hep-1 and Huh-7 cells; assay: Antiproliferative MTT assay, summary over human hepatoma cells; assay type: cell-based; settings: read-out: IC50 values against human hepatoma cells (span over cell lines)
Protocol: as §1

[3] = Aqueous solubility measurement by HPLC; assay type: physicochemical; settings: 25 °C
Protocol: Berberine, 3c and 6k (5 mg) were dissolved in 1 ml PBS (50 mM, pH 7.4) at 25 °C. The suspension was sonicated for 30 min and then centrifuged at 15000 g for 5 min. The supernatant was filtered through a PTFE filter (0.2 μm) slowly. Then 10 μL filtered solution was injected into the HPLC system (Shimadzu DGU-20A3R) on a Shimadzu-GL WondaSil C18-WR column and quantified using the standard curves made by the corresponding known concentrations of berberine, 3c and 6k. The eluent was methanol/water (65/35, v/v) at a flow rate of 1.0 ml/min with the detection wavelength at 254 nm.

Sk-Hep-1 cells = assay: In vitro antiproliferative MTT assay, Sk-Hep-1 cells; assay type: cell-based, human; settings: Homo sapiens, SK-HEP1, 72 h, mean ± SD (n = 3)
Protocol: as §1

Hep3B cells = assay: In vitro antiproliferative MTT assay, Hep3B cells; assay type: cell-based, human; settings: Homo sapiens, 72 h, mean ± SD (n = 3)
Protocol: as §1

HepG2 cells = assay: In vitro antiproliferative MTT assay, HepG2 cells; assay type: cell-based, human; settings: Homo sapiens, 72 h, mean ± SD (n = 3), read-out: IC50 (antiproliferative activity against HepG2 cells)
Protocol: as §1

duplex DNA (F10T) = assay: FRET-melting assay, F10T (duplex DNA model); assay type: binding; settings: 2 μM compounds
c-MYC G4 DNA (FPu18T) = assay: FRET-melting assay, FPu18T (c-MYC G4 DNA model); settings: 2 μM compounds
[4] = LWP coefficient (log D) measurement, shake flask; assay type: physicochemical
Protocol: Berberine, 3c and 6k of 1 mg were dissolved in three centrifugal tubes (5 ml) containing phosphate buffer (pH 7.4)-saturated 1-octanol solution (2 mL), followed by the addition of 1-octanol saturated PBS (2 mL). Each tube was vigorously mixed for 1 min and then shaken for 6 h at a speed of 1000 rpm at 37 °C. The mixtures were then centrifuged. 1 mL of 1-octanol phase and 1 mL of buffer were separately collected. Each phase was diluted to a suitable concentration and analysed by HPLC (Shimadzu DGU-20A3R) on a Shimadzu-GL WondaSil C18-WR column (λ = 254 nm) with an eluent of methanol/water (65/35, v/v, 1.0 ml/min). The log D value for each compound was calculated from the ratio of the peak areas using the following equation: Log D = log (Areaoct × x/Areabuf × y). x, y is the dilution factor.

| solubility at 30 min ([3]; pH 7.4, aqueous buffer, thermodynamic from solid) [µg/mL] | logD ([4]; pH 7.4) | SMILES | IC50 (Huh-7 cells) [µM] | IC50 (normal hepatocytes L-02) [µM] | tumour inhibitory rate (TIR, w/w) [1] [%] | IC50 [2] [µM] | solubility at 30 min ([3]; PBS (50 mM, aqueous buffer, thermodynamic from solid), PBS (pH 7.4), HPLC, read-out: Solubility) [µg/mL] | IC50 (Sk-Hep-1 cells) [µM] | IC50 (Hep3B cells) [µM] | IC50 (HepG2 cells) [µM] | ΔTm(B) = Tm(F10T + compound) - Tm(F10T) (duplex DNA (F10T)) [°C] | ΔTm(A) = Tm(FPu18T + compound) - Tm(FPu18T) (c-MYC G4 DNA (FPu18T)) [°C] | logD ([4]; 1-octanol/phosphate buffer (PBS), 1-octanol/PBS pH 7.4, shake flask, 37 °C, read-out: Log D) |
| --- | --- | --- | --- | --- | --- | --- | --- | --- | --- | --- | --- | --- | --- |
| – | – | COc1ccc2cc3[n+](cc2c1OC)CCc1cc2c(cc1-3)OCO2 [Berberine] | > 50 | > 50 | 47.3 | > 50 | 1360 | > 50 | > 50 | > 50 | 2.0 | 1.2 | -0.98 |
| 1120 | 2.41 | CCCCCCCCc1c2[n+](cc3c(OC)c(OC)ccc13)CCc1cc3c(cc1-2)OCO3.[Cl-] [Compound 3c, 9,10-Dimethoxy-13-octyl-5,6-dihydro-[1,3]dioxolo[4,5-g]isoquinolino[3,2-a]isoquinolin-7-ium chloride] | – | – | – | – | – | – | – | 4.12 ± 0.26 | – | – | – |

Reference: PMC9467586, “Development of novel 9-O-substituted-13-octylberberine derivatives as potential anti-hepatocellular carcinoma agents” (Journal of Enzyme Inhibition and Medicinal Chemistry, 2022)
